Results published in patent US12503452B2 (Curza Global, LLC, priority 2019, dated 2025).
Structures can show the parent of a compound that is named as a salt. Where two headings read alike, the source gives them in different places.

Tests used:
[1] = system: E. coli S30 extract (bacterial protein synthesis); assay: E. coli S30 extract coupled transcription-translation luciferase assay (inhibition of bacterial protein synthesis); type: biochemical; conditions: read-out: S30 IC50 (μM/% inhib.)
How it was run: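 Luminescent read-out of luciferase made from pBESTluc DNA by E. coli S30 extract after 1 h at 37 °C with compound in an 8-point 2-fold series. Background came from no-DNA reactions. Percent inhibition was calculated against water-only controls.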

E. coli (Ec) = assay: Broth microdilution minimum inhibitory concentration (MIC); type: cell-based; conditions: Escherichia coli, read-out: E. coli + bicarb MIC
How it was run: (§1)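 MICs were run in triplicate per CLSI microdilution (modified, 8 dilution steps), inoculating 5×10^4 CFU/well prepared from colonies grown at 35±2° C to 0.5 McFarland. Media: CAMHB alone, with 6.25 or 25 mM final sodium bicarbonate, or with 0–50% heat-inactivated human serum.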

P. aeruginosa (Pa) = assay: as above; type: cell-based; conditions: Pseudomonas aeruginosa, read-out: Pa MIC + bicarb
How it was run: as §1

S. aureus (Sa) = assay: as above; type: cell-based; conditions: Staphylococcus aureus, read-out: Sa + bicarb MIC
How it was run: as §1

A. baumannii (Ab) = assay: as above; type: cell-based; conditions: Acinetobacter baumannii, read-out: Ab + bicarb MIC
How it was run: as §1

E. faecalis (Ef) = assay: as above; type: cell-based; conditions: Enterococcus faecalis, read-out: Ef + bicarb MIC
How it was run: as §1

[2] = target: Rabbit Reticulocyte Lysate (eukaryotic protein synthesis); assay: Rabbit reticulocyte lysate luciferase assay (inhibition of eukaryotic protein synthesis); type: biochemical; conditions: read-out: Rabbit reticulocyte IC50 (μM/% inhib.)
How it was run: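 Compounds were tested in 8-point 2-fold dilution series for blocking luciferase synthesis in nuclease-treated rabbit reticulocyte lysate (30° C., 90 minutes). Luminescence read-out, corrected by no-RNA background, was expressed as % inhibition against water-only reactions.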

[3] = class by IC50 or % inhibition @ 1 μM
[4] = E. coli, growth medium with sodium bicarbonate
[5] = P. aeruginosa, growth medium with sodium bicarbonate
[6] = S. aureus, growth medium with sodium bicarbonate
[7] = A. baumannii, growth medium with sodium bicarbonate
[8] = E. faecalis, growth medium with sodium bicarbonate
[9] = E. coli, growth medium supplemented with sodium bicarbonate
[10] = P. aeruginosa, growth medium supplemented with sodium bicarbonate
[11] = S. aureus, growth medium supplemented with sodium bicarbonate
[12] = A. baumannii, growth medium supplemented with sodium bicarbonate
[13] = E. faecalis, growth medium supplemented with sodium bicarbonate

| SMILES | IC50 ([1]; % inhibition @ 1 μM) [µM] | MIC (E. coli (Ec)) [µg/mL] | MIC (P. aeruginosa (Pa)) [µg/mL] | MIC (S. aureus (Sa)) [µg/mL] | MIC (A. baumannii (Ab)) [µg/mL] | MIC (E. faecalis (Ef)) [µg/mL] | IC50 ([2]; % inhibition @ 1 μM) [µM] | IC50 [1, 3] [µM] | MIC (E. coli (Ec); [4]) [µg/mL] | MIC (P. aeruginosa (Pa); [5]) [µg/mL] | MIC (S. aureus (Sa); [6]) [µg/mL] | MIC (A. baumannii (Ab); [7]) [µg/mL] | MIC (E. faecalis (Ef); [8]) [µg/mL] | IC50 [2, 3] [µM] | MIC (E. coli (Ec); [9]) [µg/mL] | MIC (P. aeruginosa (Pa); [10]) [µg/mL] | MIC (S. aureus (Sa); [11]) [µg/mL] | MIC (A. baumannii (Ab); [12]) [µg/mL] | MIC (E. faecalis (Ef); [13]) [µg/mL] |
| --- | --- | --- | --- | --- | --- | --- | --- | --- | --- | --- | --- | --- | --- | --- | --- | --- | --- | --- | --- |
| CC(C)(N)C(=O)N1CCN(C(=O)Nc2ccn(-c3ccc(CN4CCCC(N)CC4)cc3)c(=O)n2)CC1 (stereo not shown) [Compound 365, hydrochloride salt] | < 0.5 | < 8 | > 32 | < 8 | > 32 | < 8 | > 1 | – | – | – | – | – | – | – | – | – | – | – | – |
| C[C@H]1CN(Cc2ccc(-n3ccc(NC(=O)N4CCN(C(=O)C(C)(C)N)CC4)nc3=O)cc2)CC[C@H]1N [Compound 211] | – | – | – | – | – | – | – | 0.5 to 1 | < 8 | > 32 | < 8 | > 32 | 8 to 32 | > 1 | – | – | – | – | – |
| CCN(Cc1ccc(-n2ccc(NC(=O)N3CCN(C(=O)C(C)(C)N)CC3)nc2=O)cc1)[C@@H]1CC[C@H](N)C1 [Compound 116] | – | – | – | – | – | – | – | < 0.5 | – | – | – | – | – | > 1 | < 8 | > 32 | 8 to 32 | > 32 | 8 to 32 |
| CC(C)(N)C(=O)N1CCN(C(=O)Nc2ccn(-c3ccc(CC4(N5CCC(N)CC5)CC4)cc3)c(=O)n2)CC1 [Compound 373] | > 1 | – | – | – | – | – | > 1 | – | < 8 | > 32 | < 8 | > 32 | 8 to 32 | – | – | – | – | – | – |
| CCN(C(C)Cc1ccc(-n2ccc(NC(=O)N3CCN(C(=O)C(C)(C)N)CC3)nc2=O)cc1)C1CCC(CN)CC1 (stereo not shown) [Compound 154] | – | – | – | – | – | – | – | < 0.5 | – | – | – | – | – | > 1 | < 8 | > 32 | < 8 | > 32 | < 8 |
| CC(Cc1ccc(-n2ccc(NC(=O)N3CCN(C(=O)C(C)(C)N)CC3)nc2=O)cc1)N[C@@H]1CC[C@@H](N)C1 (stereo partly shown) [Compound 173] | – | – | – | – | – | – | – | < 0.5 | < 8 | > 32 | < 8 | > 32 | 8 to 32 | > 1 | – | – | – | – | – |
| C[C@@H]1CCN(CCc2ccc(-n3ccc(NC(=O)N4CCN(C(=O)C(C)(C)N)CC4)nc3=O)cc2)CC[C@H]1N [Compound 27] | – | – | – | – | – | – | – | < 0.5 | – | – | – | – | – | > 1 | < 8 | 8 to 32 | < 8 | > 32 | < 8 |
| CC(Cc1ccc(-n2ccc(NC(=O)N3CCN(C(=O)C(C)(C)N)CC3)nc2=O)cc1)N(C)C[C@H]1C[C@@H](N)C1 (stereo partly shown) [Compound 160] | – | – | – | – | – | – | – | < 0.5 | – | – | – | – | – | > 1 | < 8 | > 32 | < 8 | > 32 | < 8 |
| CN(Cc1ccc(-n2ccc(NC(=O)N3CCN(C(=O)C(C)(C)N)CC3)nc2=O)cc1)[C@@H]1CC[C@H](N)C1 [Compound 115] | – | – | – | – | – | – | – | < 0.5 | – | – | – | – | – | > 1 | < 8 | > 32 | < 8 | > 32 | 8 to 32 |
| CC(Cc1ccc(-n2ccc(NC(=O)N3CCN(C(=O)C(C)(C)N)CC3)nc2=O)cc1)N1CCC(N)CC1 (stereo not shown) [Compound 169] | – | – | – | – | – | – | – | < 0.5 | < 8 | 8 to 32 | < 8 | 8 to 32 | < 8 | > 1 | – | – | – | – | – |
| CC(C)(N)C(=O)N1CCN(C(=O)Nc2ccn(-c3ccc(CNC4CCC(N)CC4)c(Cl)c3)c(=O)n2)CC1 (stereo not shown) [Compound 271] | – | – | – | – | – | – | – | < 0.5 | < 8 | > 32 | < 8 | > 32 | < 8 | > 1 | – | – | – | – | – |
| CC(C)(N)C(=O)N1CCN(C(=O)Nc2ccn(-c3ccc(CNCC4CNC4)cc3)c(=O)n2)CC1 [Compound 112] | – | – | – | – | – | – | – | < 0.5 | – | – | – | – | – | > 1 | 8 to 32 | > 32 | 8 to 32 | > 32 | > 32 |
| CCN(Cc1ccc(-n2ccc(NC(=O)N3CCN(C(=O)[C@@H](C)N)CC3)nc2=O)cc1)C1CCC(N)CC1 (stereo partly shown) [Compound 358] | 0.5 to 1 | – | – | – | – | – | > 1 | – | < 8 | > 32 | < 8 | > 32 | 8 to 32 | – | – | – | – | – | – |
